Measurements as given in patent publication US20240216316A1, “DIHOMO-GAMMA LINOLENIC ACID (DGLA) IS A NOVEL SENOLYTIC” (Buck Institute for Research on Aging, priority 2020, published 2024).
“Also recorded” adds a separate entry of the source.

How the values were obtained:
[1] = test system: p16-positive cells; assay: p16 promoter luminescence in aged P16-3MR mice before and after DGLA ethyl ester gavage; assay type: in vivo; conditions: P16-3MR mice aged 22 months; gavage 400 mg/kg for 5 consecutive days; measured two days after final gavage
Procedure: P16-3MR mice were aged for 22 months and luminescence (p16 promoter activity) was measured by luminometry (panel A). Mice were then gavaged with 400 mg/kg of DGLA ethyl ester or vehicle (phosal 50) for 5 consecutive days. Two days after the final gavage, luminescence was again measured (panel B). Six total mice were measured for luminescence and plotted before and after DGLA treatment (panel C).

[2] = test system: p16-positive cells; assay: Senescence-associated beta-galactosidase staining of epididymal fat and liver of aged P16-3MR mice; assay type: in vivo; conditions: P16-3MR mice aged 22 months; gavage 400 mg/kg for 5 consecutive days; tissues five days after final gavage
Procedure: P16-3MR mice were aged for 22 months, and gavaged with 400 mg/kg of DGLA ethyl ester or vehicle (phosal 50) for 5 consecutive days. Five days after the final gavage, epididymal fat and liver tissues were isolated and stained for senescence-associated beta-galactosidase.

[3] = test system: IMR-90; assay: Cell counts and light microscopy of senescent vs nonsenescent IMR-90 treated with T3364366 in 10% or 0.2% FBS; assay type: cell-based; conditions: 72 hours; for FBS dependence of cell killing: 10% FBS vs 0.2% FBS, normalized to 0 dose groups
Procedure: (§1) IMR-90 were induced to senesce via 10 Gy of ionizing radiation [SEN(IR)] and cultured for 7 days, followed by treatment with the indicated doses of T3364366 in the presence of 10% FBS (to provide PUFAs). Nonsenescent (NonSEN) cells served as a control. After 72 hours, cell numbers were counted and normalized to DMSO treatments.
Cells from FIG. 10 were visualized by light microscopy, allowing visualization of the cytotoxic properties of T334366 at various doses. (see, e.g., FIG. 11).
as §1, with “(which provides PUFAs and growth factors) (FIG. 12, panels A and B—red line, squares) or 0.2% FBS (FIG. 12, panel B—purple line, circles) (which induces quiescence, but limits the ability of cells to synthesize DGLA).” for “(to provide PUFAs).”, “the 0 dose treatment groups.” for “DMSO treatments.”

[4] = target: delta-5-desaturase (D5D, gene name: FADS1) (Homo sapiens, UniProt O60427); conditions: as described in Obukowicz et al. (1998) / Miyahisa et al. (2016); cited from earlier work
delta-5-desaturase (D5D, gene name: FADS1), sequence (O60427 whole entry, species assumed): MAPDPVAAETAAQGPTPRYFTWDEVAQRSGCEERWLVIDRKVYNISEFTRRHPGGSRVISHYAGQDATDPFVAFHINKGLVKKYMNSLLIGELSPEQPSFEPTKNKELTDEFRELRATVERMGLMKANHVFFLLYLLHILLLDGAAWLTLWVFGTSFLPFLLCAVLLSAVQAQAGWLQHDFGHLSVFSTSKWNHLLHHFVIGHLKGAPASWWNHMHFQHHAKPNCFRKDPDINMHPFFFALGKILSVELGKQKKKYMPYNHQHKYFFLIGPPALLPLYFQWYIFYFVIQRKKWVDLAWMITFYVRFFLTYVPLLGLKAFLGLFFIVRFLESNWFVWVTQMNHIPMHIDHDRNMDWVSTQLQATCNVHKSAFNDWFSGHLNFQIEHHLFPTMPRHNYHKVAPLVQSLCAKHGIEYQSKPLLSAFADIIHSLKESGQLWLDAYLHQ

[5] = test system: IMR-90 fibroblasts; assay: DGLA toxicity to senescent vs mock-irradiated IMR-90 fibroblasts, light microscopy; assay type: cell-based; conditions: IMR-90 mock-irradiated or 10Gy IR, 10 days later 50 micromolar DGLA for 2 days
Procedure: (§2) IMR-90 fibroblasts were either mock-irradiated (Mock) or irradiated with 10Gy of ionization radiation (IR) to induce senescence. 10 days later, cells were cultured in the presence of either vehicle (media plus FBS carrier) or 50 micromolar DGLA for 2 days. Cells were then photographed using light microscopy.
as §2, with “To evaluate the effect of DGLA on senescent cells, IMR-90” for “IMR-90”, “senescence. Ten” for “senescence. 10”, “days later” for “days later,”

[6] = test system: senescent cells [SEN(IR)]; assay: COX-2 dependence of DGLA killing of senescent cells (NS-398 or DMSO), light microscopy and cell counts; assay type: cell-based; conditions: SEN(IR) vs non-senescent; NS-398 (COX-2 inhibitor) or DMSO for 10 days, then 25 micromolar DGLA for 2 days
Procedure: Cells were either irradiated [SEN(IR)] or mock irradiated (non-senescent or “NonS”) and cultured continuously for 10 days in the presence of either NS-398 (a COX-2 inhibitor) or DMSO (vehicle). Cells were then treated with either carrier (BSA) or DGLA (25 micromolar) for 2 days, and images were captured by light microscopy.
(§3) Cells were treated as in FIG. 5. NS≡Non-senescent proliferating, SEN(IR)=IR-induced senescence, treated with 25 micromolar DGLA and either DMSO or NS-398. Panel A) Percent survival was calculated by cell counts relative to cells treated without DGLA. Panel B) Cells were stained for cleaved caspase 3 by immunofluorescence and expressed as stained cells relative to DAPI positive nuclei.
Since DGLA is converted to non-toxic arachidonic acid by D5D in most normal cells (Nakamura & Nara (2004) Annu. Rev. Nutr. 24: 345-376), the combination of gain of COX-2 and loss of D5D in senescent cells makes this an exploitable weakness. […] Its derivatives, the 1-series prostaglandins (PGX1's) are largely anti-inflammatory, and therefore may also have positive effects in the context of sterile inflammation associated with aging, so-called “inflammaging” (Franceschi & Campisi (2014) J. Gerontol. A Biol. Sci. Med. Sci. 69 (Suppl 1): S4-9).

[7] = test system: senescent cells [SEN(IR)]; assay: Cleaved caspase 3 immunofluorescence (apoptosis) after DGLA with NS-398 or DMSO; assay type: cell-based; conditions: 25 micromolar DGLA with DMSO or NS-398; stained cells relative to DAPI positive nuclei
Procedure: as §3

[8] = target: T1, delta-6-desaturase (FADS2/D6D) (Homo sapiens, UniProt O95864); conditions: as described in Obukowicz et al. (1998); cited from earlier work
T1 sequence (O95864 1-444): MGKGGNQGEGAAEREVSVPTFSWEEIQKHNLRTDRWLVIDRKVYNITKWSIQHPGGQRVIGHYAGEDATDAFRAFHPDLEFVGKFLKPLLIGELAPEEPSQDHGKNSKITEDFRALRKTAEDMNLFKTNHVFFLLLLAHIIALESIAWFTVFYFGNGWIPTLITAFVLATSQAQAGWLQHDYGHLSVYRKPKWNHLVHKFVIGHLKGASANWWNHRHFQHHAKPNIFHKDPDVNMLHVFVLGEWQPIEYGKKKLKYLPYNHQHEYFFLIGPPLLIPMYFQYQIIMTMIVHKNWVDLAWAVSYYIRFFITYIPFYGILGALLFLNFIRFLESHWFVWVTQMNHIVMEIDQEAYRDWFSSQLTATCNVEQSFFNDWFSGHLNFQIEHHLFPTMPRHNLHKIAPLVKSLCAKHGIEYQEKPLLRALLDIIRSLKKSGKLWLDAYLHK

[9] = test system: IMR-90; assay: Cell counts of senescent vs nonsenescent IMR-90 treated with CP 24,879 plus sub-toxic DGLA; assay type: cell-based; conditions: 11.75 μM CP 24,879 in the presence of 10 μM DGLA; 72 hours; SEN(IR) vs NonSEN
Procedure: as §1, with “11.75 μM CP 24,879 or vehicle (DMSO)” for “the indicated doses of T3364366”, “a sub-toxic concentration of DGLA (10 μM).” for “10% FBS (to provide PUFAs).”

SMILES: CCCCC/C=C\C/C=C\C/C=C\CCCCCCC(=O)OCC [DGLA ethyl ester]
- burden of p16-positive cells (luminescence, p16 promoter activity) [1]: lowers the burden of p16-positive cells
- senescence-associated beta-galactosidase in epididymal fat and liver tissues [2]: lowers the burden of p16-positive cells

SMILES: CC(=O)NCCSc1nc2cscc2c(=O)n1-c1ccc(OCC(F)(F)F)cc1 [Compound T3364366, N-[2-[[3,4-Dihydro-4-oxo-3-[4-(2,2,2-trifluoroethoxy)phenyl]thieno[3,4-d]pyrimidin-2-yl]thio]ethyl]acetamide]
- FBS dependence of cell killing [3]: only kills senescent cells in the presence of FBS
- FBS dependence of cell killing ([3]; listed as T334366): FBS-dependent killing of senescent cells
- killing of senescent cells (cell numbers normalized to DMSO) ([3]; indicated doses, 10% FBS, SEN(IR) vs NonSEN): selectively kills senescent cells
- inhibition of delta-5-desaturase [4]: specific inhibitor of delta-5-desaturase

SMILES: CCCCC/C=C\C/C=C\C/C=C\CCCCCCC(=O)O [DGLA, dihomo-gamma-linolenic acid]
- toxicity to senescent cells [5]: selectively toxic to senescent cells
- killing of senescent cells, COX-2 dependence [6]: selectively toxic to senescent cells in a COX-2 dependent manner; also recorded: kills senescent cells in a COX-2-dependent manner
- apoptosis in senescent cells (cleaved caspase 3), COX-2 dependence [7]: induces apoptosis in senescent cells in a COX-2-dependent manner
- senescence-associated beta-galactosidase in epididymal fat and liver tissues [2]: less senescence-associated beta-glactodsidase was observed

SMILES: CC(C)CCOc1ccc(N)cc1.Cl [CP 24,879, 4-(3-methylbutoxy)-benzenamine, monohydrochloride]
- inhibition of delta-6-desaturase [8]: inhibitor of both delta-5- and delta-6-desaturase
- inhibition of delta-5-desaturase [4]: inhibitor of both delta-5- and delta-6-desaturase
- killing of senescent cells (cell numbers normalized to DMSO) [9]: selectively kills senescent cells
